Assay results: ChEMBL document CHEMBL1201862, “PubChem BioAssay data set” (2004)
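Results reflect a 48-hour exposure of cells in 96-well plates to compound at five concentrations. At the GI50, growth is halved.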 The source made the active and inactive calls. Cut-off read from the data, not from the text of the source: active = GI50 up to about 1.1 µM and inactive = higher.

Experiments:
Assay in all cases: NCI-60 cell line screen, 48 h
SF-539 = test system: SF-539
OVCAR-8 = test system: OVCAR-8
SK-MEL-5 = test system: SK-MEL-5
SR = test system: SR
U-251 = test system: U-251
LXFL 529 = test system: LXFL 529
ACHN = test system: ACHN
OVCAR-3 = test system: OVCAR-3
HT-29 = test system: HT-29
SW-620 = test system: SW-620
NCI-H522 = test system: NCI-H522
IGROV-1 = test system: IGROV-1
SK-MEL-2 = test system: SK-MEL-2
OVCAR-4 = test system: OVCAR-4
MOLT-4 = test system: MOLT-4
HCT-116 = test system: HCT-116
K562 = test system: K562
EKVX = test system: EKVX
RPMI-8226 = test system: RPMI-8226
PC-3 = test system: PC-3

| SMILES | GI50 (SF-539) | GI50 (OVCAR-8) | GI50 (SK-MEL-5) | GI50 (SR) | GI50 (U-251) | GI50 (LXFL 529) | GI50 (ACHN) | GI50 (OVCAR-3) | GI50 (HT-29) | GI50 (SW-620) | GI50 (NCI-H522) | GI50 (IGROV-1) | GI50 (SK-MEL-2) | GI50 (OVCAR-4) | GI50 (MOLT-4) | GI50 (HCT-116) | GI50 (K562) | GI50 (EKVX) | GI50 (RPMI-8226) | GI50 (PC-3) |
| --- | --- | --- | --- | --- | --- | --- | --- | --- | --- | --- | --- | --- | --- | --- | --- | --- | --- | --- | --- | --- |
| C[C@H]1CC(=O)C2=CCCC3(SCCCS3)[C@@H]2[C@H]1CO | > 100 µM (inactive) | > 100 µM (inactive) | > 100 µM (inactive) | 54.3 µM (inactive) | 91.4 µM (inactive) | > 100 µM (inactive) | > 100 µM (inactive) | > 100 µM (inactive) | > 100 µM (inactive) | > 100 µM (inactive) | > 100 µM (inactive) | > 100 µM (inactive) | > 100 µM (inactive) | > 100 µM (inactive) | 44.9 µM (inactive) | 89.5 µM (inactive) | 47.1 µM (inactive) | > 100 µM (inactive) | 70.8 µM (inactive) | – |
| COc1ccc(NC(=O)CC2SC(Nc3ccc(Cl)cc3C)=NC2=O)c([N+](=O)[O-])c1 (stereo not given) | > 100 µM (inactive) | > 100 µM (inactive) | > 100 µM (inactive) | > 100 µM (inactive) | > 100 µM (inactive) | > 100 µM (inactive) | > 100 µM (inactive) | > 100 µM (inactive) | > 100 µM (inactive) | > 100 µM (inactive) | > 100 µM (inactive) | > 100 µM (inactive) | > 100 µM (inactive) | > 100 µM (inactive) | > 100 µM (inactive) | > 100 µM (inactive) | > 100 µM (inactive) | > 100 µM (inactive) | > 100 µM (inactive) | – |
| N#C/C(=C\c1ccc2ccccc2c1)C(=O)c1ccccc1 | > 100 µM (inactive) | 33.7 µM (inactive) | > 63 µM (inactive) | 37.8 µM (inactive) | 21.9 µM (inactive) | > 86.7 µM (inactive) | > 100 µM (inactive) | > 65.2 µM (inactive) | > 67.3 µM (inactive) | 42.4 µM (inactive) | > 92 µM (inactive) | > 100 µM (inactive) | > 100 µM (inactive) | > 100 µM (inactive) | 23.5 µM (inactive) | > 61.4 µM (inactive) | > 65.8 µM (inactive) | > 100 µM (inactive) | 34.2 µM (inactive) | 51.5 µM (inactive) |
| COc1cc(/C=C\c2ccc(C)cc2)cc(OC)c1OC | 0.00296 µM (active) | 0.00822 µM (active) | 0.00336 µM (active) | 0.00841 µM (active) | 0.00441 µM (active) | 0.0004 µM (active) | 0.0637 µM (active) | 0.00115 µM (active) | 0.00783 µM (active) | 0.00192 µM (active) | 0.00323 µM (active) | 0.0466 µM (active) | < 0.01 µM (active) | < 0.01 µM (active) | 0.00697 µM (active) | 0.00106 µM (active) | 0.00131 µM (active) | 0.0721 µM (active) | 0.00371 µM (active) | 0.0123 µM (active) |
| O=Cc1ccccc1COC(=O)c1cc(C(=O)OCc2ccccc2C=O)c(C(=O)OCc2ccccc2C=O)cc1C(=O)OCc1ccccc1C=O | > 100 µM (inactive) | 80 µM (inactive) | > 100 µM (inactive) | 29.5 µM (inactive) | 47.1 µM (inactive) | 46.3 µM (inactive) | > 100 µM (inactive) | > 100 µM (inactive) | > 100 µM (inactive) | > 100 µM (inactive) | > 100 µM (inactive) | > 100 µM (inactive) | 82.2 µM (inactive) | > 100 µM (inactive) | 30.3 µM (inactive) | 31.9 µM (inactive) | 39.8 µM (inactive) | > 100 µM (inactive) | 43.7 µM (inactive) | – |
| NC1=NS(=O)(=O)Nc2nc(-c3ccc(Cl)cc3)[nH]c21 | > 100 µM (inactive) | > 100 µM (inactive) | > 100 µM (inactive) | > 100 µM (inactive) | > 100 µM (inactive) | > 100 µM (inactive) | > 100 µM (inactive) | > 100 µM (inactive) | > 100 µM (inactive) | > 100 µM (inactive) | > 100 µM (inactive) | > 100 µM (inactive) | > 100 µM (inactive) | > 100 µM (inactive) | > 100 µM (inactive) | > 100 µM (inactive) | > 100 µM (inactive) | – | > 100 µM (inactive) | – |
